One compound from US20180250314A1, “Skin Treatment System” (priority 2017, published 2018) can be followed below.

The assay has as its system keratosis pilaris. As to the kind of experiment: In-vivo study, patients with keratosis pilaris. Particulars: topical use; arms, buttocks, thighs, and cheeks. The source says: During use of the skin treatment formulations, the glycolic acid is configured to react with the top layer of skin, i.e., the stratum corneum, by breaking it down while dissolving sebum and other substances that bind dead tissue together. The dead skin cells produced when exposed to the glycolic acid may then be sloughed off with gentle exfoliation, which clears blocked pores and opens comedones to reveal smoother, brighter, younger-looking skin.

With `O=C(O)CO` [glycolic acid], the “skin appearance in keratosis pilaris patients” value is “clearer and smoother skin”.
